{"source": "patent US9623021B2", "about": "“Nuclear receptor binding agents” (GTX, Inc., priority 2007, dated 2017)", "key": {"ER-α": {"target": "ER-α (Rattus norvegicus (Rat), UniProt P06211)", "test": "Transient transfection and reporter gene assay, ER-α, HEK-293 cells (Example 22A)", "assay_type": "cell-based", "details": "ERE-LUC", "experimental": "Human estrogen receptors (ER-α and ER-β) were cloned from prostate cDNA into a pCR3.1 plasmid vector backbone. PGC-1 was cloned into mammalian two hybrid vector pACT. ER-β H475 was mutated to alanine using site-directed mutagenesis. Sequencing was performed to determine the absence of any non specific mutations. SHP promoter (−572 to +10) (26) was cloned into pGL3 basic LUC reporter vector and human FXR was cloned into pCR3.1. HEK-293 cells were plated at 100,000 cells per well of a 24 well plate in […] (DMEM)+5% charcoal-stripped fetal bovine serum (csFBS). The cells were transfected using Lipofectamine (Invitrogen, Carlsbad, Calif.) with 0.25 μg ERE-LUC, 0.02 μg CMV-LUC (renilla luciferase) and 12.5 ng of rat ER-α or 25 ng rat ER-β. […] Luciferase assays were performed 48 hrs after transfection.\nTo determine if the selectivity in ER binding also translated into ER-β-selective activity, transient transactivation assays were performed in HEK-293 cells transfected with plasmids encoding ER-α or ER-β and ERE-LUC. The cells were treated with varying concentrations of the ligands and their EC50 values were determined."}, "[1]": {"system": "Ishikawa endometrial cells", "test": "Ishikawa growth assay (alkaline phosphatase)", "assay_type": "cell-based", "experimental": "Ishikawa cells were plated at 15,000 cells/well in 24 well plates in DME:F12 (1:1)+5% csFBS w/o phenol red. The cells were maintained in this medium at 37° C. for 3 days. Medium was changed immediately prior to drug treatment for an additional 72 hrs. After 72 hrs, the cells were fixed with formalin and the amount of alkaline phosphatase (ALP) measured by para-nitrophenyl phosphate method.\nThis effect is one potential concern in the development of ER-α SERMs."}, "PPAR-α": {"system": "PPAR-α", "test": "PPAR-α transactivation (PPRE-LUC) in HEK-293 cells co-transfected with ER-β", "assay_type": "cell-based", "details": "FIG. 12A right panel", "experimental": "FIG. 12 depict the effect of ER-β ligand on PPAR-γ function through ligand binding domain (LBD). (A). HEK-293 cells were transfected with 0.25 μg PPRE-LUC, 5 ng CMV-renilla LUC and the indicated receptors (PPAR-γ and ER-β for the left panel and PPAR-α and ER-β for the right panel). The cells were treated 24 hrs after transfection with the indicated ligands and harvested 48 hrs after transfection and firefly luciferase activity was measured and normalized to renilla luciferase. (B). H475 in ER-β LBD is important for its function. H475 in ER-β LBD was mutated to alanine (A) using a site directed mutagenesis kit. Transactivation assay was performed as described in panel A in HEK-293 cells with a titration of ER-β ligands in wild type or ER-β H475A. (C). […] The cells were treated 24 hrs after transfection with the indicated ligands and harvested 48 hrs after transfection and firefly luciferase activity was measured and normalized to renilla luciferase. […] The cells were treated 24 hrs after transfection with the indicated ligands and harvested 48 hrs after transfection and firefly luciferase activity was measured and normalized to renilla luciferase. […] The cells were treated 24 hrs after transfection with the indicated ligands and harvested 48 hrs after transfection and firefly luciferase activity was measured and normalized to renilla luciferase. […]"}, "[2]": {"system": "THP-1 macrophage cell adhesion to bEND-3 endothelial cells", "test": "Macrophage adhesion assay (LPS induced THP-1 adhesion to bEND-3 endothelial cells)", "assay_type": "cell-based", "details": "FIG. 13", "experimental": "To determine the anti-inflammatory effects of ER-β NRBAs in vitro, a macrophage adhesion assay was performed. Macrophages adhere to endothelial cells due to elevated levels of pro-inflammatory cytokines. This principle was used in this assay to determine the effect of one of the ER-β NRBAs on bacterial lipopolysaccharide (LPS) induced THP-1 macrophage cell adhesion to bEND-3 endothelial cells."}, "[3]": {"system": "LNCaP prostate cancer cells", "test": "LNCaP prostate cancer cell proliferation (3H thymidine incorporation)", "assay_type": "cell-based", "details": "treated for 6 days, FIG. 21", "experimental": "(§1) The effects of treatment of an ER-β selective NRBA of this invention on cancer cell proliferation was examined using LNCaP prostate cancer cells and C-26 colon cancer cells. LNCaP or C-26 cells were plated in growth medium in 24 well and 6 well plates, respectively. LNCaP cells were treated for 6 days and C-26 cells were treated for 3 days at the indicated concentration. ^3H thymidine incorporation was measured at the end of treatment as an indicator of cell proliferation."}, "C-26 colon cancer cells": {"system": "C-26 colon cancer cells", "test": "C-26 colon cancer cell proliferation (3H thymidine incorporation)", "assay_type": "cell-based", "details": "treated for 3 days, FIG. 22", "experimental": "as §1"}, "[4]": {"system": "LNCaP cells and human prostate stromal cells xenograft", "test": "LNCaP-stromal cell xenograft tumor growth", "assay_type": "in vivo, nude mice", "details": "30 mg/kg/day for 21 days, by day 21", "experimental": "Prostate tumor xenografts were established with LNCaP cells and human prostate stromal cells in nude mice to establish the in vivo anti-proliferative effects of these ER-β NRBAs. A 4:1 ratio (based on cell number) of LNCaP:stroma cells was injected subcutaneously in nude mice and allowed to grow until they attained 100 mm^3 in volume, as measured by calipers. […] Tumor volumes were measured twice a week and percent tumor volume calculated, after 10, 14 and 21 days."}, "[5]": {"system": "high fat diet fed C57BL6 mice", "test": "High fat diet induced obesity model, prevention studies (studies 1 and 2)", "quoted_text": "Study A: C57BL6 male mice of 4 weeks of age were divided into different groups and were fed with a normal or high fat diet (Harlan, Ind.).\nFor the treatment study (study 3), the animals were maintained on the irrespective diets for 6 weeks and then treated daily as indicated for an additional 18 weeks. Biweekly body weights and food consumption were measured. The animals were sacrificed at the end of each study and blood and tissues were collected for RNA isolation, histology and protein estimation.\nCholesterol and leptin concentrations were measured in serum using ELISA-based methods.\nHistology was performed on cryosections and stained with oil 0 red.\nOral glucose tolerance tests (OGTT) were performed on 16-h fasted mice. Mice were given 150 mg glucose by oral gavage through a gastric tube.\nSix week old C57BL/6 mice were randomized, based on body weight, into three study groups as shown in the Study Parameters Table below.\nThe mice were treated for 12 weeks. Twice weekly, the body weight and feed consumption were measured.\nA glucose tolerance test was also performed at the completion of the study by administering 150 mg glucose orally to the mice and measuring blood glucose levels at 0, 15, 30 and 60 minutes post glucose administration.\nAt sacrifice, the mice organ weights were measured and collected for histology, gene expression and protein expressions. Blood was collected for serum marker determination (cholesterol, glucose, leptin).\nDual energy X-ray absorptiometry (DEXA) was performed to measure the body composition in Study 1.\nAn MRI scan was performed at the beginning of the study, after 6 weeks and at the completion of the study."}, "ARPE-19 cells": {"system": "ARPE-19 cells", "test": "Fluorescent detection of intracellular ROS in ARPE-19 cells (tBH oxidative stress)", "details": "150 μM tBH, FIG. 20B"}, "[6]": {"details": "high fat diet, 30 mg/kg/day s.c., 12 weeks, FIG. 7"}, "[7]": {"details": "high fat diet, 30 mg/kg/day s.c., Study 2"}}, "note": "“Also recorded” adds a separate entry of the source."}
{"smiles": "O=c1c2c(O)cc(O)cc2c(Br)cn1-c1ccc(O)cc1", "note": "[Compound 12u, 4-bromo-6,8-dihydroxy-2-(4-hydroxyphenyl)isoquinolin-1(2H)-one]", "values": [{"measurement": "function at ER-α in transactivation", "setting": "ER-α", "result": "agonists"}, {"measurement": "Ishikawa cell proliferation", "setting": "[1]; FIG. 3C", "result": "weakly induce"}, {"measurement": "concentration at which proliferation of Ishikawa cells was induced", "setting": "[1]; highest concentration tested, ALP assay, 72 hrs", "result": 1, "unit": "µM"}, {"measurement": "WY14643 induced PPAR-α transactivation", "setting": "PPAR-α", "result": "did not affect"}, {"measurement": "adhesion of 3H labeled THP-1 cells to bEND-3 cells", "setting": "[2]", "result": "significantly inhibited the adhesion"}, {"measurement": "growth of LNCaP prostate cancer cells", "setting": "[3]", "result": "significantly inhibited the growth"}, {"measurement": "growth of C-26 colon cancer cells", "setting": "C-26 colon cancer cells", "result": "significantly inhibited the growth"}, {"measurement": "tumor growth (percent tumor volume)", "setting": "[4]", "result": "inhibited the growth of tumor significantly"}, {"measurement": "prevention of body weight increase caused by the high fat diet", "setting": "[5]; 30 mg/kg/day s.c., 12 weeks, Study 2", "result": "more than 50%"}, {"measurement": "gastrocnemius muscle weight", "setting": "[5]; [6]", "result": "increased gastrocnemius muscle weight"}, {"measurement": "white adipose tissue (WAT) weight", "setting": "[5]; [6]", "result": "prevented the increase in the WAT weight; also recorded: comparably decreased WAT weight"}, {"measurement": "fat mass (MRI)", "setting": "[5]; [7]", "result": "reduce fat mass"}, {"measurement": "lean mass (MRI)", "setting": "[5]; [7]", "result": "increase muscle mass; also recorded: increased the lean mass"}, {"measurement": "prevention of the increase in body fat (MRI)", "setting": "[5]; [7]", "result": "more than 50%"}, {"measurement": "testes weights", "setting": "[5]; high fat diet, 12 weeks, FIG. 9A", "result": "not altered"}, {"measurement": "serum testosterone levels", "setting": "[5]; high fat diet, 12 weeks, FIG. 9B", "result": "did not affect; also recorded: not altered"}, {"measurement": "serum follicle stimulating hormone (FSH)", "setting": "[5]; high fat diet, 12 weeks, FIG. 9C", "result": "not altered"}, {"measurement": "prevention of ROS formation / oxidative damage", "setting": "ARPE-19 cells", "result": "did not seem to have any effect"}]}
